According to patent publication US12590108B2, “Boracic acid compound” (Phaeno Therapeutics Co., Ltd, priority 2020, dated 2026):

How the values were obtained:
[1] = test system: Klebsiella pneumoniae ATCC BAA-1705; experiment: Mouse thigh muscle infection model, bacterial load; format: in vivo, CD-1 female mice; details: endpoint 12 h
Description: (§1) 36 CD-1 female mice were divided into 12 cages with 3 […] in each cage. The day of infection was denoted as day 0.
(§2) Immunosuppressant cyclophosphamide at 150 mg/kg was injected intraperitoneally on day −4 and immunosuppressant cyclophosphamide at 100 mg/kg was injected intraperitoneally on day −1 to induce immunodeficient mice.
On day −1, the strain Klebsiella pneumoniae ATCC BAA-1705 was resuscitated on an MHA plate. Resuscitated colonies were picked and dissolved in sterile physiological saline to prepare a bacterial solution with a concentration of 5.6E+07 CFU/mL for thigh muscle infection in mice. The initial time of infection was denoted as 0 h, and 100 μL of the bacterial solution was injected into each mouse at the thigh muscle at 0 h, that is, the inoculation amount was 5.6E+06 CFU/mouse. 2 h after infection, dosing was performed according to the experimental scheme. The specific experimental scheme was as follows (see Table 4): • (1) 2 h after infection: for the 1st cage of mice, at the endpoint, thigh muscle tissue was taken and placed in 10 mL of sterile physiological saline, the tissue was homogenized by a homogenizer, and the homogenate was diluted in a gradient and spotted in a plate, with two replicates for each mouse. • (2) 2 h after infection: the 2nd to 12th cages were respectively treated at 10 mL/kg by volume according to the body weight of the mice, the 2nd cage of mice were given a vehicle by intravenous injection every 2 h, and the endpoint was 12 h; the 3rd cage of mice were given 100 mg/kg of meropenem by intravenous injection every 2 h, and the endpoint was 12 h; the 4th cage of mice were given 100 mg/kg of meropenem and 20 mg/kg of QPX7728 by intravenous injection every 2 h, and the endpoint was 12 h; the 5th cage of mice were given 100 mg/kg of meropenem and 100 mg/kg of compound 15 by intravenous injection every 2 h, and the endpoint was 12 h; the 6th cage of mice were given 100 mg/kg of meropenem and 20 mg/kg of compound 15 by intravenous injection every 2 h, and the endpoint was 12 h; the 7th cage of mice were given 100 mg/kg of meropenem and 4 mg/kg of compound 15 by intravenous injection every 2 h, and the endpoint was 12 h; the 8th cage of mice were given 100 mg/kg of cefepime by intravenous injection every 2 h, and the endpoint was 12 h; the 9th cage of mice were given 100 mg/kg of cefepime and 20 mg/kg of QPX7728 by intravenous injection every 2 h, and the endpoint was 12 h; the 10th cage of mice were given 100 mg/kg of cefepime and 100 mg/kg of compound 15 by intravenous injection every 2 h, and the endpoint was 12 h; the 11th cage of mice were given 100 mg/kg of cefepime and 20 mg/kg of compound 15 by intravenous injection every 2 h, and the endpoint was 12 h; and the 12th cage of mice were given 100 mg/kg of cefepime and 4 mg/kg of compound 15 by intravenous injection every 2 h, and the endpoint was 12 h. At the endpoint of 12 h, thigh muscle tissue was taken and placed in 10 mL of sterile physiological saline, the tissue was homogenized by a homogenizer, and the homogenate was diluted in a gradient and spotted in a plate, with two replicates for each mouse. The bacterial load in the thigh muscle tissue of the mice was counted, and the experiment was summarized as follows (see Table 5): […]

[2] = test system: Klebsiella pneumoniae ATCC BAA-1705; experiment: Mouse lung infection model, bacterial load; format: in vivo, CD-1 female mice; details: endpoint 12 h
Description: as §1, §2
On day −1, the strain Klebsiella pneumoniae ATCC BAA-1705 was resuscitated on an MHA plate. Resuscitated colonies were picked and dissolved in sterile physiological saline to prepare a bacterial solution with a concentration of 2.75E+08 CFU/mL for lung infection by nasal drip. The initial time of infection was denoted as 0 h, and 50 μL of the bacterial solution was injected into each mouse by nasal drip at 0 h, that is, the inoculation amount was 1.38E+07 CFU/mouse. 2 h after infection, dosing was performed according to the experimental scheme. The specific experimental scheme was as follows (see Table 6): • (1) 2 h after infection: for the 1st cage of mice, at the endpoint, lung tissue was taken and placed in 10 mL of sterile physiological saline, the tissue was homogenized by a homogenizer, and the homogenate was diluted in a gradient and spotted in a plate, with two replicates for each mouse. • (2) 2 h after infection: the 2nd to 12th cages were respectively treated at 10 mL/kg by volume according to the body weight of the mice, the 2nd cage of mice were given a vehicle by intravenous injection every 2 h, and the endpoint was 12 h; the 3rd cage of mice were given 100 mg/kg of meropenem by intravenous injection every 2 h, and the endpoint was 12 h; the 4th cage of mice were given 100 mg/kg of meropenem and 20 mg/kg of QPX7728 by intravenous injection every 2 h, and the endpoint was 12 h; the 5th cage of mice were given 100 mg/kg of meropenem and 100 mg/kg of compound 15 by intravenous injection every 2 h, and the endpoint was 12 h; the 6th cage of mice were given 100 mg/kg of meropenem and 20 mg/kg of compound 15 by intravenous injection every 2 h, and the endpoint was 12 h; the 7th cage of mice were given 100 mg/kg of meropenem and 4 mg/kg of compound 15 by intravenous injection every 2 h, and the endpoint was 12 h; the 8th cage of mice were given 100 mg/kg of cefepime by intravenous injection every 2 h, and the endpoint was 12 h; the 9th cage of mice were given 100 mg/kg of cefepime and 20 mg/kg of QPX7728 by intravenous injection every 2 h, and the endpoint was 12 h; the 10th cage of mice were given 100 mg/kg of cefepime and 100 mg/kg of compound 15 by intravenous injection every 2 h, and the endpoint was 12 h: the 11th cage of mice were given 100 mg/kg of cefepime and 20 mg/kg of compound 15 by intravenous injection every 2 h, and the endpoint was 12 h; and the 12th cage of mice were given 100 mg/kg of cefepime and 4 mg/kg of compound 15 by intravenous injection every 2 h, and the endpoint was 12 h. At the endpoint, lung tissue was taken and placed in 10 mL of sterile physiological saline, the tissue was homogenized by a homogenizer, and the homogenate was diluted in a gradient and spotted in a plate, with two replicates for each mouse. The bacterial load in the lung tissue of the mice was counted, and the experiment was summarized as follows (see Table 7): […]

[3] = antibiotic alone 100 mg/kg i.v. q2h
[4] = cefepime 100 mg/kg + inhibitor 20 mg/kg i.v. q2h
[5] = meropenem 100 mg/kg + inhibitor 20 mg/kg i.v. q2h

Compound	Average CFU in mice (thigh muscle tissue) [1, 3]	Average CFU in mice (lung tissue) [2, 3]	Average CFU in mice (thigh muscle tissue) [1, 4]	Average CFU in mice (thigh muscle tissue) [1, 5]	Average CFU in mice (lung tissue) [2, 4]	Average CFU in mice (lung tissue) [2, 5]
CO/N=C(\C(=O)N[C@@H]1C(=O)N2C(C(=O)[O-])=C(C[N+]3(C)CCCC3)CS[C@H]12)c1csc(N)n1 [Cefepime, cefepime, reference compound]	4.25E+07 CFU/mouse	1.90E+08 CFU/mouse				
O=C(O)c1c(F)ccc2c1OB(O)[C@@H]1C[C@H]21 [QPX7728, reference compound]			1.50E+07 CFU/mouse	1.02E+07 CFU/mouse	2.68E+06 CFU/mouse	8.42E+06 CFU/mouse
